In the experiment the test system is MCF7. The experiment in a line: Cytotoxicity against human MCF7 cells by MTT assay. It counts as functional, cell-based. (In general: Formazan colour is commonly taken as a measure of viable cells.)

This is an account of results in ChEMBL document CHEMBL1157287, “Steroidal saponins from the rhizomes of Polygonatum sibiricum” (J Nat Prod, 2006).

By IC50 is commonly meant the concentration needed to halve the response being measured. Read a high IC50 as lower potency. As for `CC(=O)O[C@@H]1C[C@H](O[C@@H]2O[C@H](C)[C@H](O[C@@H]3O[C@H](CO)[C@@H](O)[C@H](O)[C@H]3O[C@@H]3O[C@H](CO)[C@@H](O)[C@H](O)[C@H]3O)[C@H](O)[C@H]2O)CC2=CC[C@H]3[C@@H]4C[C@@H]5O[C@@]6(OC[C@@H](C)[C@@H](O)[C@@H]6O)[C@@H](C)[C@@H]5[C@@]4(C)CC[C@@H]3[C@]21C`, the half-inhibitory concentration (IC50) was > 100 µM.

As to `CC1CC[C@@]2(OC1)O[C@H]1C[C@H]3[C@@H]4CC=C5C[C@@H](O[C@@H]6O[C@H](CO)[C@H](O[C@@H]7O[C@H](CO)[C@@H](O)[C@H](O)[C@H]7O[C@@H]7O[C@H](CO)[C@@H](O)[C@H](O)[C@H]7O)[C@H](O)[C@H]6O)CC[C@]5(C)[C@H]4CC[C@]3(C)[C@H]1[C@@H]2C` (mixture of isomers), the half-inhibitory concentration (IC50) turned out to be 24.3 µM.
